Source: patent US11149047B2, “Aryl imidazoles for treatment of cancer” (Aptose Biosciences Inc., priority 2017, dated 2021)
Entries after “also recorded” stand apart in the source; their conditions may differ. Like-named read-outs stand apart in the source and are kept apart here.

Experiments:
[1] = test system: BIK, BAD, MCL-1 in Raji cells; assay: Western blot of proteins involved in apoptosis; assay type: cell-based, human; details: 0.5 μM, 24 h, n=3
EOL-1 = assay: Cytotoxicity study (MTS), 5 days; assay type: cell-based; details: Homo sapiens, EOL1; AML
Procedure: (§1) EOL-1, GRANTA-519, Jeko-1, Jurkat, Molm-13, NOMO-1, SKM-1, and SU-DHL-6 were obtained from Leibniz-Institut DSMZ. HL-60, KG-1, Mino, MV4-11, Raji, and THP-1 were obtained from ATCC. HEL92.1.7 were obtained from the European Collection of Authenticated Cell Cultures and Ramos cells were a gift from Dr. M. Andreeff (MD Anderson Cancer Center, Houston, Tex.). All cells were cultured in complete media as per the manufacturer's instructions. Early passage cells were collected and frozen within 1 month of receipt from the manufacturer. All experiments were performed on early passage cells within 6 weeks of thawing. MycoScope Mycoplasma Detection Kit (Genlantis catalog #MY01050) was used to screen for potential contamination every 6 months. Peripheral blood mononuclear cells (PBMC) were isolated from fresh healthy donor blood using Ficoll-Paque PLUS (GE Healthcare, catalog #17-1440-02). For synthesis of COMPOUND I free base, 10-phenanthroline-5,6-dione (1.2 equivalents), acetic acid (22 volumes), 2-methyl-5-fluoroindole-3-carboxaldehyde (1.0 equivalents), and ammonium acetate (15 equivalents) were reacted under medium agitation while heated at 95±5° C. for 3 to 7 hours. The reaction was cooled to between 20° C. and 25° C., filtered, rinsed with acetic acid and ethanol, and dried with N2 purge, followed by a wash with 2:1 ethanol:water at 65° C. for 4 hours, cooling to 20° C. to 25° C., filtration, rinsing with 2:1 ethanol:water and EtOAc, and then dried with N2 purge. The purity by HPLC was 99.5%, and the structural identity was confirmed by FT-IR, ^1HNMR, ^13C NMR, and LC/MS. For Fe(COMPOUND I)3 synthesis, five molar equivalents of ferrous ion FeSO4 in water was added to COMPOUND I dissolved in ethanol. The deep red precipitate produced, Fe(COMPOUND I)3, was collected and dissolved in DMSO and characterized by HPLC and mass spectrometry as >95% pure. CX-5461 (7) was purchased from MedChem Express (catalog #HY-13323).
(§2) Cells were plated and treated with vehicle DMSO or COMPOUND I (10 concentrations) in 96-well plates for 5 days at 37° C. and 5% CO2. Cell viability was measured using CellTiter 96 AQueous one solution (MTS) cell proliferation assay (Promega, catalog #G3581), and IC50 values were calculated using GraphPad Prism 7 software.

HL-60 = assay: Cytotoxicity study (MTS), 5 days; assay type: cell-based; details: Homo sapiens, AML
Procedure: as §1, §2

Jeko-1 = assay: Cytotoxicity study (MTS), 5 days; assay type: cell-based; details: Homo sapiens, MCL
Procedure: as §1, §2

Jurkat = assay: Cytotoxicity study (MTS), 5 days; assay type: cell-based; details: Homo sapiens, T-ALL
Procedure: as §1, §2

KG-1 = assay: Cytotoxicity study (MTS), 5 days; assay type: cell-based; details: Homo sapiens, AML
Procedure: as §1, §2

MOLM-13 = assay: Cytotoxicity study (MTS), 5 days; assay type: cell-based; details: Homo sapiens, AML
Procedure: as §1, §2

Mino = assay: Cytotoxicity study (MTS), 5 days; assay type: cell-based; details: Homo sapiens, MCL
Procedure: as §1, §2

Nomo-1 = assay: Cytotoxicity study (MTS), 5 days; assay type: cell-based; details: Homo sapiens, AML
Procedure: as §1, §2

Ramos = assay: Cytotoxicity study (MTS), 5 days; assay type: cell-based; details: Homo sapiens, Burkitt's
Procedure: as §1, §2

SKM-1 = assay: Cytotoxicity study (MTS), 5 days; assay type: cell-based; details: Homo sapiens, AML
Procedure: as §1, §2

SUDHL-6 = assay: Cytotoxicity study (MTS), 5 days; assay type: cell-based; details: Homo sapiens, SU-DHL-6; DLBCL
Procedure: as §1, §2

THP1 = assay: Cytotoxicity study (MTS), 5 days; assay type: cell-based; details: Homo sapiens, THP-1; AML
Procedure: as §1, §2

MV4-11 = assay: Cytotoxicity study (MTS); assay type: cell-based; details: Homo sapiens
Procedure: as §1
[…] Cell viability was measured using CellTiter 96 AQueous one solution (MTS) cell proliferation assay (Promega, catalog #G3581), and IC50 values were calculated using GraphPad Prism 7 software.

MYC in AML cell lines = assay: MYC mRNA (qRT-PCR) and protein (Western blot) levels; assay type: cell-based; details: all AML cell lines tested, 24 hours
Procedure: Cells were treated with vehicle or COMPOUND I at various concentrations for 24 hours or at a single concentration for 1, 3, 6, 12, and 24 hours before harvesting. Cells were lysed by QiaShredder columns (QIAGEN, catalog #79656), total RNA was isolated using QIAGEN RNeasy Plus Mini Kit (catalog #74134), and cDNA was synthesized utilizing Transcriptor Universal cDNA master mix (Roche, catalog #05893151001) and then used for qRT-PCR analysis using FastStart essential DNA probes master mix (Roche, catalog #06402682001) and Roche LightCycler96. Primer probe pairs were purchased from IDT (Table 5). Expression was calculated as fold change over vehicle treated samples after normalizing to GAPDH […].
Cells were treated as described above. Whole-cell lysates were prepared, separated by SDS-PAGE, and transferred to nitrocellulose membranes. Densitometry was performed using ImageJ or Image Studio Lite Version5.2 software and normalized to the density of GAPDH.
MYC expression is implicated in the pathogenesis of a wide range of cancers, including leukemia and lymphoma. […] It was also observed that an increased transcription of genes negatively regulated by MYC in COMPOUND I-treated MV4-11 cells. […] The time course of MYC protein repression in MV4-11 cells paralleled inhibition of MYC gene expression levels detected by RNA-seq. […]

[2] = patients with solid tumors, up to maximum tolerated dose; cited from earlier work

Cc1[nH]c2ccc(F)cc2c1-c1nc2c3cccnc3c3ncccc3c2[nH]1 [COMPOUND I, 2-(5-fluoro-2-methyl-1H-indol-3-yl)-1H-imidazo[4,5-f][1,10]phenanthroline]
BAD increase vs DMSO control [1]: 2.1±0.25 fold
BIK increase vs DMSO control [1]: 47.5±16.8%
MCL-1 decrease vs DMSO control [1]: 38.1±2.3%
IC50 (EOL-1): 0.3 µM
IC50 (HL-60): 0.46 µM
IC50 (Jeko-1): 0.057 µM
IC50 (Jurkat): 0.52 µM
IC50 (KG-1): 0.51 µM
IC50 (MOLM-13): 0.14 µM
IC50 (Mino): 0.23 µM
IC50 (Nomo-1): 1.45 µM
IC50 (Ramos): 0.35 µM
IC50 (SKM-1): 0.48 µM
IC50 (SUDHL-6): 0.51 µM
IC50 (THP1): 0.34 µM
IC50 (MV4-11; MV4-11, 120 h, AML, 5 days, read-out: IC50 (μM) Mean): 0.24 µM
IC50 (MV4-11; MV4-11, exposure 48 hours, read-out: IC50): 0.47 µM
IC50 (MV4-11; MV4-11, exposure 72 hours, read-out: IC50): 0.4 µM
IC50 (MV4-11; MV4-11, exposure 120 hours, read-out: IC50): 0.24 µM
MYC mRNA and protein levels (MYC in AML cell lines): concentration-dependent decrease in both MYC mRNA and protein levels
myelosuppression [2]: did not produce myelosuppression; also recorded: does not produce myelosuppression
